{"source": "paper PMC11992618", "about": "“Development of cyclopeptide inhibitors specifically disrupting FXR–coactivator interaction in the intestine as a novel therapeutic strategy for MASH” (Life Metabolism, 2025)", "key": {"[1]": {"target": "T1, human FXR alpha (hFXRα)-LBD / SRC2-3 peptide (Homo sapiens, UniProt Q96RI1)", "T1 construct": "100 nmol/L 6*His-hFXRα-LBD and 100 nmol/L biotinylated co-factor peptide", "T1 sequence (Q96RI1 262-486 limits assumed)": "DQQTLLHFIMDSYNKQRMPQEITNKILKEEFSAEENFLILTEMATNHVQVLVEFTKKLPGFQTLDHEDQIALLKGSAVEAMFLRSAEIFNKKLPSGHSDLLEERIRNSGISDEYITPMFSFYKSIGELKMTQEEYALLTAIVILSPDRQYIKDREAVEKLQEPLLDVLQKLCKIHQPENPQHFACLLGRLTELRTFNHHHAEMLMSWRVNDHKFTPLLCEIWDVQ", "assay": "AlphaScreen assay, recruitment of coactivator peptide SRC2-3 to His-hFXRα-LBD", "type": "biochemical", "method": "An AlphaScreen technology-based assay was performed according to the manufacturer’s instructions with a minor revision. Briefly, the experiment was conducted with compounds at the indicated concentrations, 100 nmol/L 6*His-hFXRα-LBD and 100 nmol/L biotinylated co-factor peptide in the buffer containing 50 mmol/L MOPS, 50 μmol/L CHAPS, 50 mmol/L NaF, and 0.1 mg/mL BSA, pH 7.4. The mixture was incubated with 50 μg/mL nickel acceptor beads and 50 μg/mL streptavidin donor beads in a 384-well plate under green light in the dark at room temperature, before conducting fluorescence measurement with excitation at 680 nm and emission at 550 nm on an Envision microplate analyzer (PE 2102-8340, PerkinElmer Life Sciences)."}, "[2]": {"target": "T2, FXR-LBD (Homo sapiens, UniProt Q96RI1)", "T2 construct": "50 μmol/L Biotin-DC646 were incubated with 50 μmol/L purified FXR-LBD", "T2 sequence (Q96RI1 262-486 limits assumed)": "T1 sequence (Q96RI1 262-486 limits assumed)", "assay": "Co-immunoprecipitation of BIOTIN-DC646 and purified FXR-LBD", "type": "binding", "settings": "BIOTIN-DC646 50 μmol/L with purified FXR-LBD", "method": "For the co-immunoprecipitation of Biotin-DC646 and FXR-LBD, 50 μmol/L Biotin-DC646 were incubated with 50 μmol/L purified FXR-LBD at room temperature for 2 h at indicated conditions. These mixtures were then immunoprecipitated with beads which had been incubated with anti-His antibody (12698S, Cell Signaling Technology) at room temperature for 1 h. Immunoblotting was performed using the anti-BIOTIN antibody (sc-101339, Santa Cruz Biotechnology)."}, "[3]": {"target": "T3, PPARδ (Homo sapiens, UniProt Q03181)", "T3 sequence (Q03181 1-441)": "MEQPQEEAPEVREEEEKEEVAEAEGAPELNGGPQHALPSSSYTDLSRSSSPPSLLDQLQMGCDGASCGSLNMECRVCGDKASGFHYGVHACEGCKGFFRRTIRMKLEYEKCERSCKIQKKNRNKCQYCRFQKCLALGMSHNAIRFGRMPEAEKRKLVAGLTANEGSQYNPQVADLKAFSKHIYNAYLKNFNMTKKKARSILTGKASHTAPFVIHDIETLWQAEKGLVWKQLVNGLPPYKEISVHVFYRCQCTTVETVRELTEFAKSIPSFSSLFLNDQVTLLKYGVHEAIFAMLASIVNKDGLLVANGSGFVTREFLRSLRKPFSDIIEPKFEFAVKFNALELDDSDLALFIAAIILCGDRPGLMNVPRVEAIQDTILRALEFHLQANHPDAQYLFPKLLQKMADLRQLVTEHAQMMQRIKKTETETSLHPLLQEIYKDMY", "assay": "PPARδ cell-based reporter assay", "settings": "10 μmol/L; inhibition of agonist-induced receptor activation", "source_text": "Inhibition% means inhibition percentage of agonist-induced receptor activation."}, "[4]": {"test_system": "intestinal FXR-ceramide axis and GLP-1", "assay": "HFD-fed mice, ileal FXR signaling, ceramides and serum GLP-1", "type": "in vivo, mouse", "settings": "oral 10 and 30 mg/kg", "method": "Mice were fasted for 6 h and gavaged with a single dose of 25 mg/kg sitagliptin, followed by 2 g/kg glucose 45 min later. Blood samples were collected 15 min after glucose administration, and GLP-1 was measured using active GLP-1 kits.\nThe intestine and liver were frozen in liquid nitrogen and stored at −80°C. RNA was extracted, and complementary DNA was synthesized from 1 μg total RNA. RT-qPCR was performed on a Bio-Rad CFX384 Touch detection system (Bio-Rad). The primer sequences for RT-qPCR are shown in Supplementary Table S5. RNA levels were analyzed by 2-^ΔΔCt, normalized to 18S ribosomal RNA and expressed as fold change relative to the control group.\nFor ileal lipidomics, samples were homogenized, extracted with chloroform, and prepared for analysis. Separation was achieved using an Acquity UPLC CSH C18 column, and analysis was conducted via liquid chromatography electrospray ionization tandem mass spectrometry (LC-ESI-MS/MS). Mobile phases were comprised with acetonitrile–water and isopropanol/acetonitrile solutions, both containing 10 mmol/L ammonium acetate and 0.1% formic acid.\nSupplementary Figure S9 DC646 antagonizes intestinal FXR, thereby reducing ceramide production and inducing GLP-1 production. (a) Relative mRNA expression of ileal FXR signaling. (b) Ileal ceramide levels (the data are normalized and centralized). (c) Relative mRNA expression of ileal ceramide-synthesis related genes. (d) Serum GLP-1 levels. HFD-fed mice were gavaged with vehicle or 10 mg/kg or 30 mg/kg DC646. n = 8 in each group. Data are presented as the mean ± SEM and analyzed by one-way ANOVA with Dunnett’s post hoc test. ^*P < 0.05, ^**P < 0.01, and ^***P < 0.001, versus HFD + Vehicle group."}}, "data": [{"smiles": "CC(C)C[C@@H]1NC(=O)[C@@H]2CN(CCO2)c2cccc3c2c(cn3[Si](C(C)C)(C(C)C)C(C)C)C[C@H](NS(=O)(=O)C(F)(F)F)C(=O)OCCCCNC(=O)[C@H](CC(C)C)NC(=O)[C@@H]2CN(CCO2)c2cccc3c2c(cn3[Si](C(C)C)(C(C)C)C(C)C)C[C@H](NS(=O)(=O)C(F)(F)F)C(=O)OCCCCNC1=O", "note": "[DC646, N,N'-((1^2R,1^4S,16^2R,16^4S,4R,13R,19R,28R)-13,28-diisobutyl-5,12,15,20,27,30-hexaoxo-2^1,17^1-bis(triisopropylsilyl)-2^1H,17^1H-6,21-dioxa-11,14,26,29-tetraaza-1(4,2),16(2,4)-dimorpholina-2,17(4,3)-diindolacyclotriacontaphane-4,19-diyl)bis(1,1,1-trifluoromethanesulfonamide)]", "values": [{"measurement": "Agonistic activity (SRC2-3 recruitment, compound alone)", "setting": "[1]; DC646 alone, Fig. 2e", "value": "no agonistic activity"}, {"measurement": "Disruption of hFXRα-LBD-SRC2-3 interaction induced by Ivermectin", "setting": "[1]; DC646 at 11 μmol/L, Ivermectin 5 μmol/L", "value": "competitively disrupted"}, {"measurement": "IC50", "setting": "[1]; IC50, DC646 combined with CDCA, adding order: DC646 combined with CDCA, Fig. 4b", "value": 12.2, "unit": "µM"}, {"measurement": "IC50", "setting": "[1]; IC50 in recruiting the SRC2-3 peptide in the presence of CDCA, in the presence of CDCA (50 μmol/L), Fig. 2f", "value": 8.86, "unit": "µM"}, {"measurement": "Effect on CDCA agonism when adding DC646 before CDCA", "setting": "[1]; adding order: CDCA after DC646", "value": "completely blunted the agonism of CDCA"}, {"measurement": "Antagonism when adding DC646 after CDCA", "setting": "[1]; adding order: DC646 after CDCA", "value": "no antagonism"}, {"measurement": "Binding with FXR-LBD (co-immunoprecipitation)", "setting": "[2]", "value": "directly bind"}, {"measurement": "inhibition at 10 µM", "setting": "[3]", "value": 18.9, "unit": "%"}, {"measurement": "Ceramide levels in the ileum", "setting": "[4]", "value": "reduced"}, {"measurement": "Serum GLP-1 levels", "setting": "[4]", "value": "markedly increased"}, {"measurement": "FXR signaling in the ileum (mRNA levels of Shp and Fgf15)", "setting": "[4]; dose-dependent", "value": "repressed"}]}]}
